Where two headings read alike, the source gives them in different places.
How the values were obtained:
MCL-1 = MCL-1 (Homo sapiens, UniProt Q07820); assay: Protein-protein interaction assay MCL-1/Noxa BH3 peptide (MCL-1 assay), TR-FRET; format: binding; conditions: MBP-MCL-1 / Noxa BH3-derived peptide, median
In short: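 Inhibition values were normalized between DMSO controls with all reagents and controls lacking MCL-1. The binding competition used 1 nM MBP-MCL-1 in pH 7 Tris buffer containing 50 mM KF and 100 mM NaCl, with a 10 min compound preincubation at 22 °C.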

SUDHL10 [1] = assay: Induction of caspase-3/7 activity (Caspase-Glo 3/7), SUDHL10; format: cell-based; conditions: caspase-3/7 induction, SUDHL10 cells, 3 h treatment, median
In short: (§1)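 Apoptosis induction measured as caspase-3/7 activity (Caspase-Glo 3/7) in DLBCL lines after 3 h treatment at 37 °C; EC50 derived relative to the reference compound's maximal induction, with C0 fixed at 1.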

OPM2 = assay: Anti-proliferative effect (CellTiter-Glo, 72 h), OPM2; format: cell-based; conditions: OPM2 cells, median, read-out: IC50 antiproliferation assay OPM2 [M] (median)
In short: (§2)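 Luminescence from CellTiter-Glo, read 10 min after reagent addition, reports viable cell content after 72 h of compound treatment at 37 °C. A reference plate read at day 0 gives the starting baseline.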

SUDHL5 [2] = assay: Induction of caspase-3/7 activity (Caspase-Glo 3/7), SUDHL5; format: cell-based; conditions: caspase-3/7 induction, SUDHL5 cells, 3 h treatment, median
In short: as §1

SUDHL5 [3] = assay: Induction of cytotoxicity (CellTiter-Glo, 5 h), SUDHL5
SUDHL10 [4] = assay: Anti-proliferative effect (CellTiter-Glo, 72 h), SUDHL10; format: cell-based; conditions: SUDHL10 cells, antiproliferation, 72 h incubation, median, read-out: Antiproli SUDHL10 [M] (median)
In short: as §2

SUDHL5 [5] = assay: Anti-proliferative effect (CellTiter-Glo, 72 h), SUDHL5; format: cell-based; conditions: SUDHL5 cells, antiproliferation, 72 h incubation, median, read-out: Antiproli SUDHL5 [M] (median)
In short: as §2

SUDHL10 [6] = assay: Induction of cytotoxicity (CellTiter-Glo, 5 h), SUDHL10
Procedure: Therefore, cytotoxicity assays were run in parallel in SUDHL5 and SUDHL10 cells.
The different cell lines were plated in culture medium (RPMI 1640 [GIBCO #22400-089]supplemented with 10% Fetal Bovine Serum) at a density of 3.300 cells in 30 μl/well in a sterile, solid black, flat bottom, polystyrene, TC-treated 384-well microplate (Corning #3571) using Multidrop Combi Reagent Dispenser. As a control, medium without cells was also added to the plate. Cells were incubated in a humidified incubator at 37° C. overnight. On the next day, the cells were treated with compounds (stock solution, 10 mM in DMSO) using the HP D300 Digital Dispenser in a concentration range of 3.3×10e-5 M (33 μM) to 5×10e-9 M (5 nM) in a single-dot curve with at least 16 dilutions and a DMSO concentration of 0.33%. Rim wells were excluded. The cells were incubated for 5 h hours in a humidified incubator at 37° C. After this incubation, 30 μl of CellTiter-Glo@ Luminescent Cell Viability reagent (Promega, G7573) was added to each well using the Multidrop Combi Reagent Dispenser, followed by 15 min incubation on a shaker at room temperature. Finally, luminescence was read at 0.1 ms, with a gain of 3000 using the PHERAstar FS microplate reader (BMG Labtech).
The Bella DRC Master Sheet was used to calculate IC50s, with fixed CI=0 and C0=1.

[7] = Homo sapiens, SU-DHL-5, 5 h, read-out: Cytotox SUDHL5 [M] (median), SUDHL5 cells, cytotoxicity induction, CellTiter-Glo, 5 h incubation, median
[8] = Homo sapiens, SU-DHL10, 5 h, read-out: Cytotox SUDHL10 [M] (median), SUDHL10 cells, cytotoxicity induction, CellTiter-Glo, 5 h incubation, median
[9] = read-out: Cytotox SUDHL5 [M] (median), SUDHL5 cells, cytotoxicity induction, CellTiter-Glo, 5 h incubation, median
[10] = read-out: Cytotox SUDHL10 [M] (median), SUDHL10 cells, cytotoxicity induction, CellTiter-Glo, 5 h incubation, median

Chain of MCL-1 (Q07820 whole entry): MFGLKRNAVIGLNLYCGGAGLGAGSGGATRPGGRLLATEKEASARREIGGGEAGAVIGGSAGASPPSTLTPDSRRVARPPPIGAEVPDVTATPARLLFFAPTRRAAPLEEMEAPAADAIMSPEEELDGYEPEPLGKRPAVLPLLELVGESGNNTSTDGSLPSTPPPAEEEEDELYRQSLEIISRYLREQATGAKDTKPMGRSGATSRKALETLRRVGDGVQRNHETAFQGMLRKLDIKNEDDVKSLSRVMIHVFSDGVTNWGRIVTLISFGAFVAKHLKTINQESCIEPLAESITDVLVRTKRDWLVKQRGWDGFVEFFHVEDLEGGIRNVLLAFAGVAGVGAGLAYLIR

SMILES | IC50 (MCL-1) | EC50 (SUDHL10 [1]; Homo sapiens, SU-DHL10, 3 h) | EC50 (SUDHL5 [2]; Homo sapiens, SU-DHL-5, 3 h) | IC50 (SUDHL10 [4]; Homo sapiens, SU-DHL10, 72 h) | IC50 (SUDHL5 [5]; Homo sapiens, SU-DHL-5, 72 h) | EC50 (SUDHL10 [1]) | EC50 (SUDHL5 [2]) | IC50 (SUDHL10 [4]) | IC50 (SUDHL5 [5]) | IC50 (OPM2; Homo sapiens, OPM-2, 72 h) | IC50 (SUDHL5 [3]; [7]) | IC50 (SUDHL10 [6]; [8]) | IC50 (OPM2) | IC50 (SUDHL5 [3]; [9]) | IC50 (SUDHL10 [6]; [10])
Cc1nn(C)c2c1-c1cccc3c(CCCOc4cccc5ccccc45)c(C(=O)O)n(c13)CC=CCN2Cc1ccccc1 (racemic) [Example 001, (rac)-(E/Z)-8-benzyl-9,11-dimethyl-1-[3-(1-naphthyloxy)propyl]-4,7,8,9-tetrahydropyrazolo[4′,3′:4,5][1,6]diazecino[3,2,1-hi]indole-2-carboxylic Acid] | 1.01 µM | 29.1 µM | > 33 µM | 9.57e-06 M | > 3.3e-05 M |  |  |  |  | > 3.3e-05 M | 2.61e-05 M | > 3.3e-05 M |  |  | 
Cn1nc(COc2ccccc2)c2c1COCC=CCn1c(C(=O)O)c(CCCOc3cccc4ccccc34)c3cccc-2c31 (single isomer, unassigned) [Example 1-78, (E/Z)-1-methyl-7-[3-(naphthalen-1-yloxy)propyl]-3-(phenoxymethyl)-1,10,13,15-tetrahydropyrazolo[4′,3′:9,10][1,6]oxazacycloundecino[8,7,6-hi]indole-8-carboxylic Acid] | 0.905 µM |  |  |  |  | > 33 µM | > 33 µM | 1.08e-05 M | 1.79e-05 M |  |  |  | 3.06e-05 M | > 3.3e-05 M | > 3.3e-05 M
CN1CCCn2c(C(=O)O)c(CCCOc3cccc4ccccc34)c3cccc(c32)-c2c(COc3ccccc3)nn(C)c2C1 (single isomer, unassigned) [Example 1-83, 7,9-dimethyl-1-[3-(naphthalen-1-yloxy)propyl]-11-(phenoxymethyl)-4,5,6,7,8,9-hexahydropyrazolo[3′,4′:7,8][1,5]diazecino[9,10,1-hi]indole-2-carboxylic Acid] | 0.24 µM |  |  |  |  | > 33 µM | > 33 µM | 1.12e-05 M | 2.06e-05 M |  |  |  | > 3.3e-05 M | > 3.3e-05 M | > 3.3e-05 M
Cc1cc(OCCCc2c(C(=O)O)n3c4c(cccc24)-c2c(COc4ccccc4)nn(C)c2CN(C)CCC3)cc(C)c1Cl (single isomer, unassigned) [Example 1-85, 1-[3-(4-chloro-3,5-dimethylphenoxy)propyl]-7,9-dimethyl-11-(phenoxymethyl)-4,5,6,7,8,9-hexahydropyrazolo[3′,4′:7,8][1,5]diazecino[9,10,1-hi]indole-2-carboxylic Acid] | 0.262 µM | > 33 µM | > 33 µM | 1.03e-05 M | 2.5e-05 M |  |  |  |  | > 3.3e-05 M | > 3.3e-05 M | > 3.3e-05 M |  |  | 
Cc1cc(OCCCc2c(C(=O)O)n3c4c(cccc24)-c2c(COc4ccccc4)nn(C)c2CN(C)CCC3)cc(C)c1Cl (single isomer, unassigned) [Example 1-86, 1-[3-(4-chloro-3,5-dimethylphenoxy)propyl]-7,9-dimethyl-1-(phenoxymethyl)-4,5,6,7,8,9-hexahydropyrazolo[3′,4′:7,8][1,5]diazecino[9,10,1-hi]indole-2-carboxylic Acid] | 0.278 µM |  |  |  |  | > 33 µM | > 33 µM | 9.45e-06 M | 1.96e-05 M |  |  |  | 2.43e-05 M | > 3.3e-05 M | > 3.3e-05 M

Now those with a lower IC50 (MCL-1), led by results:

IC50 (MCL-1) | EC50 (SUDHL10 [1]; Homo sapiens, SU-DHL10, 3 h) | EC50 (SUDHL5 [2]; Homo sapiens, SU-DHL-5, 3 h) | IC50 (SUDHL10 [4]; Homo sapiens, SU-DHL10, 72 h) | IC50 (SUDHL5 [5]; Homo sapiens, SU-DHL-5, 72 h) | EC50 (SUDHL10 [1]) | EC50 (SUDHL5 [2]) | IC50 (SUDHL10 [4]) | IC50 (SUDHL5 [5]) | SMILES | IC50 (OPM2; Homo sapiens, OPM-2, 72 h) | IC50 (SUDHL5 [3]; [7]) | IC50 (SUDHL10 [6]; [8]) | IC50 (OPM2) | IC50 (SUDHL5 [3]; [9]) | IC50 (SUDHL10 [6]; [10])
0.00652 µM | 30.1 µM | 15.6 µM | 1.36e-05 M | 1.04e-05 M |  |  |  |  | Cc1nn(C)c2c1-c1cccc3c(CCCOc4cccc5ccccc45)c(C(=O)O)n(c13)CCCN(C)C2 (racemic) [Example 1-30, (rac)-7,9,11-trimethyl-1-[3-(naphthalen-1-yloxy)propyl]-4,5,6,7,8,9-hexahydropyrazolo[3′,4′:7,8][1,5]diazecino[9,10,1-hi]indole-2-carboxylic Acid] | 2.28e-05 M | > 3.3e-05 M | > 3.3e-05 M |  |  | 
0.0994 µM | > 33 µM | > 33 µM | 2.78e-05 M | > 3.3e-05 M |  |  |  |  | CN1CCCn2c(C(=O)O)c(CCCOc3cccc4ccccc34)c3cccc(c32)-c2c(COc3ccccc3)nn(C)c2C1 (racemic) [Example 1-81, (rac)-7,9-dimethyl-1-[3-(naphthalen-1-yloxy)propyl]-1-(phenoxymethyl)-4,5,6,7,8,9-hexahydropyrazolo[3′,4′:7,8][1,5]diazecino[9,10,1-hi]indole-2-carboxylic Acid] | > 3.3e-05 M | > 3.3e-05 M | > 3.3e-05 M |  |  | 
0.11 µM | > 33 µM | > 33 µM | 8.37e-06 M | 1.18e-05 M |  |  |  |  | Cc1cc(OCCCc2c(C(=O)O)n3c4c(cccc24)-c2c(COc4ccccc4)nn(C)c2CN(C)CCC3)cc(C)c1Cl (racemic) [Example 1-84, (rac)-1-[3-(4-chloro-3,5-dimethylphenoxy)propyl]-7,9-dimethyl-11-(phenoxymethyl)-4,5,6,7,8,9-hexahydropyrazolo[3′,4′:7,8][1,5]diazecino[9,10,1-hi]indole-2-carboxylic Acid] | > 3.3e-05 M | > 3.3e-05 M | > 3.3e-05 M |  |  | 
0.175 µM | > 30 µM | > 30 µM | 7.07e-06 M | 1.18e-05 M |  |  |  |  | Cc1nn(C)c2c1-c1cccc3c(CCCOc4cccc5ccccc45)c(C(=O)O)n(c13)CCCN(c1ccccc1)C2 (racemic) [Example 1-97, (rac)-9,11-Dimethyl-1-[3-(1-naphthyloxy)propyl]-7-phenyl-4,5,6,7,8,9-hexahydropyrazolo[3′4′:78][1,5]diazecino[9,10,1-hi]indole-2-carboxylic Acid] | 1.43e-05 M | > 3e-05 M | > 3e-05 M |  |  | 
0.188 µM | > 33 µM | > 33 µM | 1.52e-05 M | 2.96e-05 M |  |  |  |  | Cn1nc(COc2ccccc2)c2c1COCC=CCn1c(C(=O)O)c(CCCOc3cccc4ccccc34)c3cccc-2c31 (single isomer, unassigned) [Example 1-77, (E/Z)-1-methyl-7-[3-(naphthalen-1-yloxy)propyl]-3-(phenoxymethyl)-1,10,13,15-tetrahydropyrazolo[4′,3′:9,10][1,6]oxazacycloundecino[8,7,6-hi]indole-8-carboxylic Acid] | > 3.3e-05 M | > 3.3e-05 M | > 3.3e-05 M |  |  | 
0.113 µM | > 33 µM | > 33 µM | 1.42e-05 M | 2.77e-05 M |  |  |  |  | CN1CCCn2c(C(=O)O)c(CCCOc3cccc4ccccc34)c3cccc(c32)-c2c(COc3ccccc3)nn(C)c2C1 (single isomer, unassigned) [Example 1-82, 7,9-dimethyl-1-[3-(naphthalen-1-yloxy)propyl]-11-(phenoxymethyl)-4,5,6,7,8,9-hexahydropyrazolo[3′,4′:7,8][1,5]diazecino[9,10,1-hi]indole-2-carboxylic Acid] | > 3.3e-05 M | > 3.3e-05 M | > 3.3e-05 M |  |  | 
0.0479 µM | 32.9 µM | > 33 µM | 1.24e-05 M |  |  |  |  | 2.13e-05 M | CN1CCCn2c(C(=O)O)c(CCCOc3cccc4ccccc34)c3cccc(c32)-c2c(COc3ccc(-n4ccccc4=O)cc3)nn(C)c2C1 (single isomer, unassigned; enantiomer 1) [Example 1-115, 7,9-Dimethyl-1-[3-(1-naphthyloxy)propyl]-1-{[4-(2-oxopyridin-1(2H)-yl)phenoxy]methyl}-4,5,6,7,8,9-hexahydropyrazolo[3′,4′:7,8][1,5]diazecino[9,10,1-hi]indole-2-carboxylic Acid (Enantiomer 1)] | > 3.3e-05 M |  | > 3.3e-05 M |  | > 3.3e-05 M | 
